In one data set the test system is production of TNFα. The data set is described as follows: in vivo TNFα model in Wistar rats (LPS-induced). Particulars: oral administration 30 min before i.p. LPS; plasma 90 min after LPS; male Wistar rats. The text has this: TNFα is a cytokine which plays a central role in the mechanisms of inflammation. Its production can be induced by an injection of lipopolysaccharide (LPS). It has been shown that the increase in intracellular cAMP, produced in particular by PDE4 inhibitors, decreases the production of TNFα in in vitro and in vivo models. It is thus a matter here of quantifying in vivo the anti-inflammatory potential of the compounds of the invention, administered orally (p.o.) by measuring the inhibition of the production of TNFα in the plasma of rats, these rats having received an intraperitoneal (i.p.) injection of lipopolysaccharide (LPS). The treatment with the compounds of the invention or the vehicle are [sic] administered orally to male Wistar rats, 30 min before the injection of LPS. The rats are sacrificed 90 min after the stimulation with LPS, the blood is collected onto EDTA and the TNFα concentration is measured in each plasma sample. […] References • Chen, Y. L., Le Vraux, V., Giroud, J. P. and Chauvelot-Moachon L. (1994). Anti-tumor necrosis factor properties of non-peptide drugs in acute-phase responses. […] Int. J. Immunopharmacol., 16 (10), 805-816. Model of Eosinophilia in Rats

Another data set deals with PDE4. Kind of data set: Inhibition of PDE4 (cytosolic enzyme preparation from U937 line), compared with rolipram. It counts as biochemical, human. Particulars: PDE4 enzyme preparation obtained from the U937 line.

For orientation: melting point means the temperature, or range, at which the solid turns liquid. The term IC50 denotes the concentration that gives 50% inhibition. A higher IC50 goes with weaker potency in that assay. Molecule `CCC(C)c1nn(CC)c2c1N=C(c1ccncc1)CNC2=O` (racemic) [Example 69, (±)3-sec-Butyl-1-ethyl-5-pyrid-4-yl-6,7-dihydro-1H-pyrazolo[4,3-e][1,4]diazepin-8-one] yielded a melting point of 86 to 88.5 °C. Also, in the data set on production of TNFα, the “inhibition of the production of TNFα in the plasma of rats” value (“inhibition of the production of TNFα” below) is “excellent activity”. At PDE4, this molecule showed an IC50 of 13 nM.

On to `CCCn1nc(C(C)CC)c2c1C(=O)NCC(c1ccncc1)=N2` (racemic) [Example 71, (±)3-sec-Butyl-1-propyl-5-pyrid-4-yl-6,7-dihydro-1H-pyrazolo[4,3-e][1,4]diazepin-8-one], for which the melting point came out at 110 °C. The “inhibition of the production of TNFα” value in the data set with production of TNFα was “excellent activity”. The molecule further had a half-inhibitory concentration (IC50) against PDE4 of 35 nM.

For the molecule `CCn1nc(C(C)C)c2c1C(=O)NCC(c1ccccc1)=N2` [Example 1, 1-Ethyl-3-isopropyl-5-phenyl-6,7-dihydro-1H-pyrazolo[4,3-e][1,4]diazepin-8-one], the melting point is 157.2 °C. In addition, the “inhibition of the production of TNFα” value in the data set with production of TNFα was “excellent activity”. For the same molecule, at PDE4, half-maximal inhibition (IC50) was put at 4.9 nM.

Take `CCn1nc(C(C)C)c2c1C(=O)NCC(c1ccc(C)cc1)=N2` [Example 36, 1-Ethyl-3-isopropyl-5-p-tolyl-6,7-dihydro-1H-pyrazolo[4,3-e][1,4]diazepin-8-one]: the “inhibition of the production of TNFα” value in the data set on production of TNFα was “excellent activity”. Also, the IC50 against PDE4 was determined as 0.39 nM.

In the case of `CCn1nc(C(C)C)c2c1C(=O)NCC(c1ccc(C#N)cc1)=N2` [Example 37, 4-(1-Ethyl-3-isopropyl-8-oxo-1,6,7,8-tetrahydro-pyrazolo[4,3-e][1,4]diazepin-5-yl)benzonitrile], the “inhibition of the production of TNFα” value in the data set on production of TNFα is recorded as “excellent activity”. In addition, on PDE4, the half-inhibitory concentration (IC50) was determined as 0.97 nM.

In the case of `CCn1nc(C(C)C)c2c1C(=O)NCC(c1ccc(OC)cc1OC)=N2` [Example 39, 5-(2,4-Dimethoxyphenyl)-1-ethyl-3-isopropyl-6,7-dihydro-1H-pyrazolo[4,3-e][1,4]diazepin-8-one], in the data set on production of TNFα, the “inhibition of the production of TNFα” value is “excellent activity”. The molecule also displayed an IC50 on PDE4 of 9.1 nM.

For `CCCn1nc(C(C)C)c2c1C(=O)NCC(C(C)(C)C)=N2` [Example 40, 5-tert-Butyl-3-isopropyl-1-propyl-6,7-dihydro-1H-pyrazolo[4,3-e][1,4]diazepin-8-one], the “inhibition of the production of TNFα” value in the data set with production of TNFα is recorded as “excellent activity”. Also, the IC50 against PDE4 worked out at 8.2 nM.

In the case of `CCCn1nc(C(C)C)c2c1C(=O)NCC(c1ccc(C)cc1)=N2` [Example 41, 3-Isopropyl-1-propyl-5-p-tolyl-6,7-dihydro-1H-pyrazolo[4,3-e][1,4]diazepin-8-one], the “inhibition of the production of TNFα” value in the data set with production of TNFα is “excellent activity”. Further, the half-maximal inhibitory concentration (IC50) on PDE4 turned out to be 11 nM.

Take `CCCn1nc(C(C)C)c2c1C(=O)NCC(c1ccc(C#N)cc1)=N2` [Example 42, 4-(3-Isopropyl-8-oxo-1-propyl-1,6,7,8-tetrahydro-pyrazolo[4,3-e][1,4]diazepin-5-yl)benzonitrile]: the “inhibition of the production of TNFα” value in the data set on production of TNFα is on record as “excellent activity”. At PDE4, this molecule yielded a 50% inhibitory concentration (IC50) of 10 nM.

As to `CCn1nc(C(C)(C)C)c2c1C(=O)NCC(c1ccc(C)cc1)=N2` [Example 45, 3-tert-Butyl-1-ethyl-5-p-tolyl-6,7-dihydro-1H-pyrazolo[4,3-e][1,4]diazepin-8-one], the “inhibition of the production of TNFα” value with production of TNFα is recorded as “excellent activity”. The molecule further came in with a half-maximal inhibitory concentration (IC50) at PDE4 of 2.6 nM.

Consider `CCn1nc(C(C)(C)C)c2c1C(=O)NCC(c1ccc(C#N)cc1)=N2` [Example 46, 4-(3-tert-Butyl-1-ethyl-8-oxo-1,6,7,8-tetrahydro-pyrazolo[4,3-e][1,4]diazepin-5-yl)benzonitrile], for which the “inhibition of the production of TNFα” value with production of TNFα is recorded as “excellent activity”. Besides, it took 0.84 nM to reach half-maximal inhibition on PDE4 (IC50).

As for `CCCn1nc(C2CCCCC2)c2c1C(=O)NCC(c1ccncc1)=N2` [Example 75, 3-Cyclohexyl-1-propyl-5-pyrid-4-yl-6,7-dihydro-1H-pyrazolo-[4,3-e][1,4]diazepin-8-one], the “inhibition of the production of TNFα” value in the data set with production of TNFα is on record as “excellent activity”. The molecule further registered a half-maximal inhibitory concentration (IC50) against PDE4 of 4.9 nM.

The values are drawn from US6962912B2, “Substituted pyrazolo[4,3-e]diazepines, pharmaceutical compositions containing them, use as medicinal products and processes for preparing them” (Warner-Lambert LLC, priority 2000, dated 2005).
